According to ChEMBL document CHEMBL4196033, “Potent hydrazone derivatives targeting esophageal cancer cells” (Eur J Med Chem, 2018):
Calls of active or inactive are those of the source. The calls are words filed in the database; no cut-off is given here.

Columns and labels:
[1] = system: PC-3; experiment: Antiproliferative activity against human PC3 cells after 72 hrs by MTT assay; format: functional, cell-based; settings: PC-3, 72 h
[2] = system: ECa-109 cell line; experiment: Antiproliferative activity against human EC109 cells after 48 hrs by MTT assay; format: functional, cell-based; settings: ECa-109, 48 h
[3] = system: EC9706; experiment: Anticlonogenic activity against human EC9706 cells after 7 days by crystal violet staining based assay; format: functional, cell-based
[4] = system: EC9706; experiment: Cell cycle arrest in human EC9706 cells assessed as decrease in G2/M phase population at 4 uM after 24 hrs by propidium iodide staining based flow cytometry relative to control; format: functional
[5] = system: EC9706; experiment: Cell cycle arrest in human EC9706 cells assessed as decrease in G2/M phase population at 8 uM after 24 hrs by propidium iodide staining based flow cytometry relative to control; format: functional
[6] = system: EC9706; experiment: Upregulation of p27 protein expression in human EC9706 cells at 8 uM after 24 to 48 hrs by Western blot analysis relative to control; format: functional
[7] = system: EC9706; experiment: Induction of morphological changes in human EC9706 cells assessed as chromatin condensation after 48 hrs by Hoechst 33342 staining based fluorescence microscopic method; format: functional, cell-based
[8] = system: ECa-109 cell line; experiment: Induction of morphological changes in human EC109 cells assessed as chromatin condensation after 48 hrs by Hoechst 33342 staining based fluorescence microscopic method; format: functional, cell-based
[9] = system: ECa-109 cell line; experiment: Induction of morphological changes in human EC109 cells assessed as apoptotic body formation after 48 hrs by Hoechst 33342 staining based fluorescence microscopic method; format: functional, cell-based
[10] = system: EC9706; experiment: Induction of apoptosis in human EC9706 cells assessed as live cells at 2 uM after 48 hrs by Annexin V-FITC/propidium iodide staining based flow cytometry (reference value: 85.5 to 96%); format: functional
[11] = system: EC9706; experiment: Induction of apoptosis in human EC9706 cells assessed as early apoptotic cells at 2 uM after 48 hrs by Annexin V-FITC/propidium iodide staining based flow cytometry (reference value: 0.68 to 1.58%); format: functional
[12] = system: EC9706; experiment: Induction of apoptosis in human EC9706 cells assessed as necrotic cells at 2 uM after 48 hrs by Annexin V-FITC/propidium iodide staining based flow cytometry (reference value: 1.1 to 1.31%); format: functional
[13] = system: EC9706; experiment: Induction of apoptosis in human EC9706 cells assessed as late apoptotic cells at 4 uM after 48 hrs by Annexin V-FITC/propidium iodide staining based flow cytometry (reference value: 1.29 to 1.99%); format: functional
[14] = system: EC9706; experiment: Induction of apoptosis in human EC9706 cells assessed as early apoptotic cells at 8 uM after 48 hrs by Annexin V-FITC/propidium iodide staining based flow cytometry (reference value: 0.68 to 1.58%); format: functional
[15] = system: EC9706; experiment: Induction of apoptosis in human EC9706 cells assessed as necrotic cells at 8 uM after 48 hrs by Annexin V-FITC/propidium iodide staining based flow cytometry (reference value: 1.1 to 1.31%); format: functional
[16] = system: ECa-109 cell line; experiment: Induction of apoptosis in human EC109 cells assessed as early apoptotic cells at 2 uM after 48 hrs by Annexin V-FITC/propidium iodide staining based flow cytometry (reference value: 0.43 to 1.15%); format: functional
[17] = system: ECa-109 cell line; experiment: Induction of apoptosis in human EC109 cells assessed as early apoptotic cells at 4 uM after 48 hrs by Annexin V-FITC/propidium iodide staining based flow cytometry (reference value: 0.43 to 1.15%); format: functional
[18] = system: ECa-109 cell line; experiment: Induction of apoptosis in human EC109 cells assessed as late apoptotic cells at 4 uM after 48 hrs by Annexin V-FITC/propidium iodide staining based flow cytometry (reference value: 0.2 to 1.74%); format: functional
[19] = system: EC9706; experiment: Induction of apoptosis in human EC9706 cells assessed as live cells at 4 uM after 48 hrs in presence of caspase inhibitor Z-VAD-FMK by Annexin V-FITC/propidium iodide staining based flow cytometry (reference value: 95.7%); format: functional
[20] = system: EC9706; experiment: Induction of apoptosis in human EC9706 cells assessed as necrotic cells at 4 uM after 48 hrs in presence of caspase inhibitor Z-VAD-FMK by Annexin V-FITC/propidium iodide staining based flow cytometry (reference value: 1.2%); format: functional
[21] = system: EC9706; experiment: Induction of apoptosis in human EC9706 cells assessed as live cells at 8 uM after 48 hrs in presence of caspase inhibitor Z-VAD-FMK by Annexin V-FITC/propidium iodide staining based flow cytometry (reference value: 95.7%); format: functional
[22] = system: EC9706; experiment: Induction of apoptosis in human EC9706 cells assessed as late apoptotic cells at 8 uM after 48 hrs in presence of caspase inhibitor Z-VAD-FMK by Annexin V-FITC/propidium iodide staining based flow cytometry (reference value: 1.27%); format: functional
[23] = system: ECa-109 cell line; experiment: Induction of apoptosis in human EC109 cells assessed as early apoptotic cells at 4 uM after 48 hrs in presence of caspase inhibitor Z-VAD-FMK by Annexin V-FITC/propidium iodide staining based flow cytometry (reference value: 0.52%); format: functional
[24] = system: ECa-109 cell line; experiment: Induction of apoptosis in human EC109 cells assessed as early apoptotic cells at 8 uM after 48 hrs in presence of caspase inhibitor Z-VAD-FMK by Annexin V-FITC/propidium iodide staining based flow cytometry (reference value: 0.52%); format: functional
[25] = system: ECa-109 cell line; experiment: Induction of ROS generation in human EC109 cells at 4 uM after 24 hrs by DCFH-DA staining based flow cytometry relative to control; format: functional
[26] = system: ECa-109 cell line; experiment: Induction of apoptosis in human EC109 cells at 2 to 4 uM after 48 hrs in presence of anti-oxidant NAC by Annexin V-FITC/propidium iodide staining based flow cytometry; format: functional, cell-based
[27] = system: ECa-109 cell line; experiment: Induction of apoptosis in human EC109 cells assessed as increase in cleaved caspase-8 protein expression after 48 hrs by Western blot analysis; format: functional, cell-based
[28] = system: ECa-109 cell line; experiment: Induction of apoptosis in human EC109 cells assessed as increase in cleaved PARP protein expression after 48 hrs by Western blot analysis; format: functional, cell-based
[29] = system: ECa-109 cell line; experiment: Induction of apoptosis in human EC109 cells assessed as increase in p53 protein expression after 48 hrs by Western blot analysis; format: functional, cell-based
[30] = system: EC9706; experiment: Induction of apoptosis in human EC9706 cells assessed as increase in p53 protein expression after 48 hrs by Western blot analysis; format: functional, cell-based
[31] = system: ECa-109 cell line; experiment: Induction of apoptosis in human EC109 cells assessed as increase in tBid protein expression at 2 to 8 uM after 48 hrs by Western blot analysis; format: functional, cell-based
[32] = system: EC9706; experiment: Induction of apoptosis in human EC9706 cells assessed as decrease in Bid protein expression at 2 to 8 uM after 48 hrs by Western blot analysis; format: functional, cell-based
[33] = system: EC9706; experiment: Effect on Prxs-1 protein expression in human EC9706 cells at 2 to 8 uM after 48 hrs by Western blot analysis; format: functional, cell-based
[34] = system: EC9706; experiment: Effect on Prxs-2 protein expression in human EC9706 cells at 2 to 8 uM after 48 hrs by Western blot analysis; format: functional, cell-based
[35] = system: ECa-109 cell line; experiment: Effect on Prxs-1 protein expression in human EC109 cells at 2 to 8 uM after 48 hrs by Western blot analysis; format: functional, cell-based
[36] = system: Mus musculus; experiment: Acute toxicity in C57BL/6 mouse assessed as histopathological changes in spleen at 2 g/kg, ig measured for 2 weeks by hematoxylin and eosin staining based microscopic method; format: organism-based; settings: in vivo, po, 2000 mg/kg, 336 h

Q: `COc1ccc(/C=N/NC(=O)c2cccc(S(=O)(=O)N3CCOCC3)c2)c(O)c1` was tested. Which IC50 [1] did it give?
A: 5.8 µM

Q: What about the IC50 [2] of the same molecule?
A: 11.3 µM

Q: And the Activity [3]?
A: Active

Q: And the “fold change (FC)” value [4]?
A: 0.3

Q: And the “fold change (FC)” value [5]?
A: 0.26

Q: And the “fold change (FC)” value [6]?
A: 1.7

Q: And the Activity [7]?
A: Dose-dependent effect

Q: What about the Activity [8] of the same molecule?
A: Dose-dependent effect

Q: And the Activity [9]?
A: Dose-dependent effect

Q: And the Activity [10]?
A: 82.8%

Q: And the Activity [11]?
A: 1.56%

Q: What about the Activity [12] of the same molecule?
A: 10.1%

Q: And the Activity [13]?
A: 18.2 - 21.6%

Q: What about the Activity [14] of the same molecule?
A: 8.64 - 26%

Q: What about the Activity [15] of the same molecule?
A: 10.1 - 10.2%

Q: And the Activity [16]?
A: 13.3%

Q: What about the Activity [17] of the same molecule?
A: 17.8 - 22.4%

Q: What about the Activity [18] of the same molecule?
A: 17.4 - 31.1%

Q: And the Activity [19]?
A: 42.1%

Q: And the Activity [20]?
A: 15.2%

Q: And the Activity [21]?
A: 31%

Q: What about the Activity [22] of the same molecule?
A: 25%

Q: What about the Activity [23] of the same molecule?
A: 9.34%

Q: And the Activity [24]?
A: 14.1%

Q: And the “fold change (FC)” value [25]?
A: 2.05

Q: What about the Activity [26] of the same molecule?
A: inactive

Q: And the Activity [27]?
A: Dose-dependent effect

Q: And the Activity [28]?
A: Dose-dependent effect

Q: What about the Activity [29] of the same molecule?
A: Dose-dependent effect

Q: And the Activity [30]?
A: Dose-dependent effect

Q: And the Activity [31]?
A: Active

Q: What about the Activity [32] of the same molecule?
A: Active

Q: What about the Activity [33] of the same molecule?
A: Active

Q: And the Activity [34]?
A: Active

Q: What about the Activity [35] of the same molecule?
A: Active

Q: And the Activity [36]?
A: Non-Toxic
